# Results taken from US10092620B2, “Uses of cyclic peptides for treating and preventing atherosclerosis” (THE SCRIPPS RESEARCH INSTITUTE, priority 2013, dated 2018).
# Non-standard residues stand in square brackets, D forms with d. Residues, ends and D or L forms follow the SMILES beside them.
# Columns and labels:
# [1] = mouse pharmacokinetics, i.p., LC-MS SIM; format: in vivo; details: male, BALB/cByJ, plasma, ip, BALB/c mice, i.p. 16 mg/kg
# Experimental: Pharmacokinetics: The TSRI Institutional Animal Care and Use Committee approved all experimental protocols involving live animals. Male mice (20 g) on a BALB/cByJ background were obtained from the Rodent Breeding Colony of the Department of Animal Resources at TSRI, and were maintained on a chow diet. The cyclic peptide c[wLwReQeR], 1, was dissolved in PBS containing 1% sucrose, and sterile filtered through a 0.22-μm syringe filter before injection. Mice were fasted beginning 12 h before dosing, and continued the fast until after the 8-h time point blood draw was completed. Groups of three mice received a 16-mg/kg dose of the cyclic peptide via intraperitoneal injection (0.3 mL). Blood was drawn (30-60 μL) from the retro-orbital sinus into a heparinized capillary tube before dosing (0 min) and at different intervals from 30 min to 8 h after dosing. Plasma was isolated immediately from the whole blood by centrifugation at 5000 rpm for 10 min at 4° C. […] The resultant supernatant was analyzed by using LC-MS SIM as described below.
# LC-MS SIM quantitation of peptide concentration: Cyclic peptide concentrations were quantified by using reverse-phase HPLC coupled with mass spectrometry. […] For quantitative calibration, standard curves were established using mouse EDTA-anticoagulated plasma spiked with various concentrations of the peptide. […]
# LDLr-null mice = assay: evaluation of atherosclerosis: whole aorta lesion area and aortic sinus lesion volume; format: in vivo, mouse; details: 10 weeks
# Text: In vivo efficacy study: LDL receptor-null (LDLr^−/−) mice on a C57BL/6J background were initially purchased from Jackson Laboratories (Bar Harbor, Me.) and were bred in house. The mice were weaned at 4 weeks of age and were fed ad libitum a standard chow diet (Harlan Teklad 7019) until they were 10-weeks old, when they were switched to a high-fat Western diet (WD) containing 15.8% (wt/wt) fat, 1.25% (wt/wt) cholesterol, and no cholate (Harlan Teklad 94059). At the time that the WD was started, the test cyclic peptide was added to the drinking water at a high dose of 180 μM (200 μg/mL) or a low dose of 18 μM (20 μg/mL) and the mice (female, n=8 per dosing group) were continued on WD for 10 weeks. The lyophilized peptide was easily dissolved in PBS (pH 7.4) containing 1% sucrose, resulting in a clear solution. The drinking water solution was replaced with fresh solution every day. A control group of eight mice (female, n=8) were fed WD with vehicle (PBS with 1% sucrose) drinking water. The mice consumed approximately 2.5 mL of water per day per mouse, and there was no significant difference in water or food consumption between groups.
# Evaluation of atherosclerosis: Atherosclerotic lesion severity was assessed in the aortae as previously described in Mullick et al., J. Clin. Invest. 115, 3149-3156, 2005. Briefly, at euthanasia, animals were perfused with PBS, followed by 4% formaldehyde (10% UltraPure EM Grade from Polysciences diluted in PBS, pH 7.2). For en face analysis, the entire mouse aorta was dissected from the proximal ascending aorta to the bifurcation of the iliac artery by using a dissecting microscope. Adventitial fat was removed, and the aorta was opened longitudinally, pinned flat onto black dissecting wax, stained with Sudan IV, and photographed at a fixed magnification. The photographs were digitized, and total aortic areas and lesion areas were calculated by using Adobe Photoshop version CS4, Chromatica V, and NIH Scion Image software (http://rsb.info.nih.gov/nih-image/Default.html). The results were reported as a percentage of the total aortic area that contained lesions.
# As a second assessment of atherosclerosis, lesions of the aortic root (heart sinus) were analyzed. Utilizing stereological principles, lesion volume was estimated across a fixed distance of the aortic sinus. […] Lesion areas found only within the valve cusp were measured. […] Lesion volume was calculated from an integration of the measured cross-sectional areas. […]
# Other than their in vivo cholesterol reducing activities, several peptides were also examined for ability to inhibit development of atherosclerotic legions in vivo. […] All charts in the figure are shown as a scatter plot along with mean±SD. p values were determined by the one-way ANOVA test with a post hoc Tukey-Kramer test.
# [2] = oral ~25 mg/kg/day, LDLr-null mice, high-fat diet, vs control
smiles,measurement,setting,value
"CC(C)C[C@@H]1NC(=O)[C@@H](Cc2c[nH]c3ccccc23)NC(=O)[C@H](CCCNC(=N)N)NC(=O)[C@@H](CCC(=O)O)NC(=O)[C@H](CCC(N)=O)NC(=O)[C@@H](CCC(=O)O)NC(=O)[C@H](CCCNC(=N)N)NC(=O)[C@@H](Cc2c[nH]c3ccccc23)NC1=O [SEQ ID NO:1, c[wLwReQeR]] (cyclo([dW]L[dW]R[dE]Q[dE]R))",half-life,[1],~2 h
same,atherosclerotic lesions vs control (in words),LDLr-null mice; 10-fold lower dose in drinking water,no significant differences
same,reduction in aortic sinus lesion volume,LDLr-null mice; [2],50%
same,reduction in whole aorta lesion area,LDLr-null mice; [2],26%
